The values below come from patent US7531529B2, “Imidazole derivatives” (Roche Palo Alto LLC, priority 2003, dated 2009).

Structures are written as SMILES.

For this test, the target named is T1, human mGlu5a receptor (Homo sapiens, UniProt P41594).
T1 construct: expressed in transfected cells; host or cells: EBNA cells (transient transfection); cell membrane homogenates
T1 sequence (P41594 21-1180 isoform P41594-2 limits assumed): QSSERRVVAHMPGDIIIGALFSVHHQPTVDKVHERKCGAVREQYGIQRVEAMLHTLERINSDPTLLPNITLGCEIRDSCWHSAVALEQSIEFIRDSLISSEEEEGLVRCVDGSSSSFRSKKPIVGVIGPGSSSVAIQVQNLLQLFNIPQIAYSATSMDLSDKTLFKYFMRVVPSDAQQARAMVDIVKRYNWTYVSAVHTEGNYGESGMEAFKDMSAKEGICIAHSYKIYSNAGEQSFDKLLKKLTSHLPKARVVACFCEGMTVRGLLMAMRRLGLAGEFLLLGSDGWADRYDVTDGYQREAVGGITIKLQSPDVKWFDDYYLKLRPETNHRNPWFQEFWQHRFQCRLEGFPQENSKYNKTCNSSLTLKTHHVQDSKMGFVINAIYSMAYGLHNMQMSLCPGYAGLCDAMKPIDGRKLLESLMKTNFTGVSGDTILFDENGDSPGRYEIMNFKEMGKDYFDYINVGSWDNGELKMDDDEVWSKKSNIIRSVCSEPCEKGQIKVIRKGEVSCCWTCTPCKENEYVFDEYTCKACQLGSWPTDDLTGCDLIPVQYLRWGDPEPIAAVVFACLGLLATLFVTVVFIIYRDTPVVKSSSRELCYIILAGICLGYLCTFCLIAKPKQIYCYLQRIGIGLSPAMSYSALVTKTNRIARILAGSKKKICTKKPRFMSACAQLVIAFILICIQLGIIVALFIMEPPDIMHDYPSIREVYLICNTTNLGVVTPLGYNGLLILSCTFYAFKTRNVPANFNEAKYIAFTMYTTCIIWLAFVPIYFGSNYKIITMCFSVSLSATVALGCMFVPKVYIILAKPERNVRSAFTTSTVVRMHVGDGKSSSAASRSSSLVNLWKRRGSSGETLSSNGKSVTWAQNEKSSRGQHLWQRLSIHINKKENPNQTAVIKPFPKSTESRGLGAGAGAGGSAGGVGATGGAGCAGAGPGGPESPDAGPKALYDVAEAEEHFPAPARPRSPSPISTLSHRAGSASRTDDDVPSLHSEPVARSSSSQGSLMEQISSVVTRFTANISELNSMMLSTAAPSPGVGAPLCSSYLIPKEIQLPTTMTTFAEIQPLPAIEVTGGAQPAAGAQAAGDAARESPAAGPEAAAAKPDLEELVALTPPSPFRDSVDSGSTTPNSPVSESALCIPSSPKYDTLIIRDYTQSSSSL
Briefly: [3H]MPEP competition binding on membranes of EBNA cells transfected with human mGlu5a receptor. Here is the method: For binding experiments, cDNA encoding human mGlu5a receptor was transiently transfected into EBNA cells using a procedure described by Schlaeger and Christensen [Cytotechnology 15:1-13 (1998)]. Cell membrane homogenates were stored at −80° C. until the day of assay where upon they were thawed and resuspended and polytronised in 15 mM Tris-HCl, 120 mM NaCl, 100 mM KCl, 25 mM CaCl2, 25 mM MgCl2 binding buffer at pH 7.4 to a final assay concentration of 20 μg protein/ well.
Saturation isotherms were determined by addition of twelve [^3H]MPEP concentrations (0.04-100 nM) to these membranes (in a total volume of 200 μl) for 1 h at 4° C. Competition experiments were performed with a fixed concentration of [^3H]MPEP (2 nM) and IC50 values of test compounds evaluated using 11 concentrations (0.3-10,000 nM). Incubations were performed for 1 h at 4° C.
At the end of the incubation, membranes were filtered onto unifilter (96-well white microplate with bonded GF/C filter preincubated 1 h in 0.1% PEI in wash buffer, Packard BioScience, Meriden, Conn.) with a Filtermate 96 harvester (Packard BioScience) and washed 3 times with cold 50 mM Tris-HCl, pH 7.4 buffer. Nonspecific binding was measured in the presence of 10 μM MPEP. The radioactivity on the filter was counted (3 min) on a Packard Top-count microplate scintillation counter with quenching correction after addition of 45 μl of microscint 40 (Canberra Packard S.A., Zürich, Switzerland) and shaking for 20 min.
The Ki value is defined by the following formula: Ki=IC50/[1+L/Kd] in which the IC50 values are those concentrations of the compounds tested which cause 50% inhibition of the competing radioligand ([^3H]MPEP). L is the concentration of radioligand used in the binding experiment and the Kd value of the radioligand is empirically determined for each batch of membranes prepared.
For the compound `Cc1nc(C#Cc2ccnc(Cl)c2)cn1-c1ccc(C2CC2)nc1` [Example 33, 5-[4-(2-Chloro-pyridin-4-ylethynyl)-2-methyl-imidazol-1-yl]-2-cyclopropyl-pyridine], the Ki (commonly a dissociation constant, usually derived from enzyme kinetics or from competition with a known ligand) amounted to 24 nM.
For `Cc1ccnc(-n2cc(C#Cc3ccnc(Cl)c3)nc2C)n1` [Example 25, 2-[4-(2-Chloro-pyridin-4-ylethynyl)-2-methyl-imidazol-1-yl]-4-methyl-pyrimidine] the value was 40 nM.
Next, `Cc1ccc(-n2cc(C#Cc3ccnc(Cl)c3)nc2C)nc1` [Example 30, 2-[4-(2-Chloro-pyridin-4-ylethynyl)-2-methyl-imidazol-1-yl]-5-methyl-pyridine]: 36 nM; `Cc1ccc(-n2cc(C#Cc3ccnc(Cl)c3)nc2C)cc1` [Example 20, 2-Chloro-4-[1-(4-methyl-phenyl)-2-methyl-1H-imidazol-4-ylethynyl]-pyridine]: 15 nM; `Cc1cc(-n2cc(C#Cc3ccnc(Cl)c3)nc2C)ccc1F` [Example 18, 2-Chloro-4-[1-(4-fluoro-3-methyl-phenyl)-2-methyl-1H-imidazol-4-ylethynyl]-pyridine]: 25 nM.
Next, `COc1ccnc(-n2cc(C#Cc3ccnc(Cl)c3)nc2C)n1` [Example 26, 2-[4-(2-Chloro-pyridin-4-ylethynyl)-2-methyl-imidazol-1-yl]-4-methoxy-pyrimidine]: 12 nM.
In the case of `Cc1nc(C#Cc2ccnc(F)c2)cn1-c1ccc(F)cc1` [Example 2, 2-Fluoro-4-[1-(4-fluoro-phenyl)-2-methyl-1H-imidazol-4-ylethynyl]-pyridine], the Ki amounted to 23 nM.
Turning to `COc1ccc(-n2cc(C#Cc3ccnc(Cl)c3)nc2C)cc1` [Example 22, 2-Chloro-4-[1-(4-methoxy-phenyl)-2-methyl-1H-imidazol-4-ylethynyl]-pyridine], the Ki was 26 nM.
Next, `Cc1nc(C#Cc2ccnc(Cl)c2)cn1-c1cncc(F)c1` [Example 6, 3-[4-(2-Chloro-pyridin-4-ylethynyl)-2-methyl-imidazol-1-yl]-5-fluoro-pyridine]: 63 nM; `Cc1nc(C#Cc2ccnc(Cl)c2)cn1-c1cccc(C(F)(F)F)n1` [Example 5, 2-[4-(2-Chloro-pyridin-4-ylethynyl)-2-methyl-imidazol-1-yl]-6-trifluoromethyl-pyridine]: 21 nM; `Cc1nc(C#Cc2ccnc(Cl)c2)cn1-c1ccnc(C(F)(F)F)n1` [Example 28, 4-[4-(2-Chloro-pyridin-4-ylethynyl)-2-methyl-imidazol-1-yl]-2-trifluoromethyl-pyrimidine]: 23 nM.
As to `Cc1nc(C#Cc2ccnc(Cl)c2)cn1-c1ccc(Cl)c(Cl)c1` [Example 8, 2-Chloro-4-[1-(3,4-dichloro-phenyl)-2-methyl-1H-imidazol-4-ylethynyl]-pyridine], the Ki came to 24 nM.
For `Cc1nc(C#Cc2ccnc(C#N)c2)cn1-c1ccc(Cl)nc1` [Example 31, 4-[1-(6-Chloro-pyridin-3-yl)-2-methyl-1H-imidazol-4-ylethynyl]-pyridine-2-carbonitrile] the value was 69 nM; for `Cc1nc(C#Cc2ccnc(C#N)c2)cn1-c1ccc(F)cc1` [Example 10, 4-[1-(4-Fluoro-phenyl)-2-methyl-1H-imidazol-4-ylethynyl]-pyridine-2-carbonitrile], 44 nM.
